# Data taken from the OligoGym collection.
# “And” between values parts separate entries of the source, which are not always exact repeats. Equal entries are not always repeated. After the bases stand the sugars from the 5' end (letter, count) and the backbone: PS all phosphorothioate, else s phosphorothioate and o phosphodiester by linkage. Methylation of C is not given here. e = 2'-O-(2-methoxyethyl) (MOE); k = constrained ethyl (cEt); d = 2'-deoxy (DNA)
# Target: IRF4
# Settings: ASO, MM.1R, 0.0625 µM
row,Sequence,target mRNA inhibition
1,"AATGGATAGTTTCTCA (sugars k3 d10 k3, PS)",-2% and -14%
2,"ACACTTTTAGAGAGGA (sugars k3 d10 k3, PS)",32%
3,"ACGTGTGCTTGCCAAG (sugars kkdddddddddkdkdk, PS)",15%
4,"ACTGGATTGATGTGAT (sugars k3 d10 k3, PS)",2% and 9%

# Same assay, conditions: ASO, MM.1R, 0.074 µM
row,Sequence,target mRNA inhibition [%]
1,"AATGGATAGTTTCTCA (sugars k3 d10 k3, PS)",11

# Same assay, conditions: ASO, MM.1R, 0.222 µM
row,Sequence,target mRNA inhibition
1,"AATGGATAGTTTCTCA (sugars k3 d10 k3, PS)",8%
2,"ACACTTTTAGAGAGGA (sugars k3 d10 k3, PS)",25% and 41%

# Same assay, conditions: ASO, MM.1R, 0.25 µM
row,Sequence,target mRNA inhibition
1,"AATGGATAGTTTCTCA (sugars k3 d10 k3, PS)",6% and 5%
2,"ACACTTTTAGAGAGGA (sugars k3 d10 k3, PS)",41%
3,"ACGTGTGCTTGCCAAG (sugars kkdddddddddkdkdk, PS)",43%
4,"ACTGGATTGATGTGAT (sugars k3 d10 k3, PS)",6% and 20%

# Same assay, conditions: ASO, MM.1R, 0.666 µM
row,Sequence,target mRNA inhibition [%]
1,"AATGGATAGTTTCTCA (sugars k3 d10 k3, PS)",23

# Same assay, conditions: ASO, MM.1R, 1 µM
row,Sequence,target mRNA inhibition
1,"AAATCACGAGGTTGCC (sugars k3 d10 k3, PS)",21%
2,"AACGCAAGTCTGAATT (sugars k3 d10 k3, PS)",3%
3,"AAGCAGTGATGTCAGG (sugars kddddddddddkekek, PS)",28% and 39%
4,"AAGCATTTTATCATCC (sugars k3 d10 k3, PS)",25%
5,"AAGCATTTTATCATCC (sugars kkdddddddddekeke, PS)",25%
6,"AAGCATTTTATCATCC (sugars kkdddddddddkekek, PS)",18%
7,"AAGCTTGATAAAGGCT (sugars kkddddddddddkeke, PS)",-18%
8,"AAGCTTGATAAAGGCT (sugars kkkdddddddddkeke, PS)",-18%
9,"AAGTGTCTAAAGTCCC (sugars kkddddddddddkeke, PS)",10% and 12%
10,"AAGTTCATGTAAAGTC (sugars kddddddddddkekek, PS)",14% and 6%
11,"AAGTTCATGTAAAGTC (sugars kkddddddddddkeke, PS)",28% and 20%
12,"AAGTTCTAGTCGCGCA (sugars k3 d10 k3, PS)",11%
13,"AATGGATAGTTTCTCA (sugars k3 d10 k3, PS)",21% and 36%
14,"AATGGCGGATAGATCT (sugars k3 d10 k3, PS)",10% and 25%
15,"AATGTGTATTACTCTT (sugars kkdddddddddkekek, PS)",52% and 41%
16,"AATTCCTCCACTACCA (sugars k3 d10 k3, PS)",-41%
17,"ACACGCCCGACCCTCC (sugars k3 d10 k3, PS)",4%
18,"ACACTTTTAGAGAGGA (sugars kkdddddddddkdkdk, PS)",3%
19,"ACACTTTTAGAGAGGA (sugars kkdddddddddkekek, PS)",27%
20,"ACAGAGACGCGGTGAG (sugars k3 d10 k3, PS)",14%
21,"ACAGTGACTTGCATCC (sugars k2 d9 e3 k2, PS)",27%

row,Sequence,target mRNA inhibition
1,"ACAGTGACTTGCATCC (sugars k3 d10 k3, PS)",34%
2,"ACAGTGACTTGCATCC (sugars kddddddddddkekek, PS)",-5%
3,"ACAGTGACTTGCATCC (sugars kdddddddddkekeke, PS)",6%
4,"ACCAAAAGTACCACAG (sugars k3 d10 k3, PS)",-8%
5,"ACCGCATTGCTAGATT (sugars k3 d10 k3, PS)",27%
6,"ACCTAACTAAATGTCA (sugars k3 d10 k3, PS)",-24%
7,"ACCTTCGCGGCCGGCC (sugars k3 d10 k3, PS)",-42%
8,"ACGAAGGGCAGTGCCT (sugars k3 d10 k3, PS)",-5%
9,"ACGGAAGTTTACACTG (sugars kddddddddddkekek, PS)",7%
10,"ACGGAAGTTTACACTG (sugars kkdddddddddkekek, PS)",21%
11,"ACGGAGGCGGCAGACG (sugars k3 d10 k3, PS)",-9%
12,"ACGTGTGCTTGCCAAG (sugars kdddddddddkekeke, PS)",40% and 35%
13,"ACGTGTGCTTGCCAAG (sugars kkdddddddddkdkdk, PS)",75% and 66% and 56%
14,"ACTAACAGGGAGACTG (sugars k3 d10 k3, PS)",-19%
15,"ACTAAGCTTGATAAAG (sugars k3 d10 k3, PS)",14% and 5%
16,"ACTCTTAGGCACATCA (sugars k3 d10 k3, PS)",27%
17,"ACTGCCGTGATCTGAG (sugars k3 d10 k3, PS)",34% and 29%
18,"ACTGCTTGAGGTTTTC (sugars kddddddddddkekek, PS)",22%
19,"ACTGCTTGAGGTTTTC (sugars kkdddddddddkdkdk, PS)",19%
20,"ACTGGATTGATGTGAT (sugars k3 d10 k3, PS)",25% and 39%

# Same assay, conditions: ASO, MM.1R, 2 µM
row,Sequence,target mRNA inhibition
1,"AATGGATAGTTTCTCA (sugars k3 d10 k3, PS)",45%
2,"ACACTTTTAGAGAGGA (sugars k3 d10 k3, PS)",72% and 89%

# Same assay, conditions: ASO, MM.1R, 4 µM
row,Sequence,target mRNA inhibition
1,"AATGGATAGTTTCTCA (sugars k3 d10 k3, PS)",45% and 50%
2,"ACACTTTTAGAGAGGA (sugars k3 d10 k3, PS)",74%
3,"ACGTGTGCTTGCCAAG (sugars kkdddddddddkdkdk, PS)",77%
4,"ACTGGATTGATGTGAT (sugars k3 d10 k3, PS)",65% and 69%

# Same assay, conditions: ASO, SK-MEL-28, 4 µM
row,Sequence,target mRNA inhibition [%]
1,"AAAGTCCCATCGAATC (sugars k3 d10 k3, PS)",13
2,"AAATACGACAACTTTC (sugars k3 d10 k3, PS)",21
3,"AAATGAGTCGGTCACT (sugars k3 d10 k3, PS)",55
4,"AAATTAAAGAGCGCAT (sugars k3 d10 k3, PS)",13
5,"AACACCTGATCTTGCT (sugars k3 d10 k3, PS)",-10
6,"AACAGAGACGCGGTGA (sugars k3 d10 k3, PS)",10
7,"AACAGGCTATCAGGAT (sugars k3 d10 k3, PS)",17
8,"AACAGTAAGAGGGCAG (sugars k3 d10 k3, PS)",63
9,"AACCAATCCCAACACT (sugars k3 d10 k3, PS)",12
10,"AACCAGTACAGTCCAC (sugars k3 d10 k3, PS)",35
11,"AACGAGGTAAATCTTC (sugars k3 d10 k3, PS)",51
12,"AACTATCTTATTCCTC (sugars k3 d10 k3, PS)",30
13,"AACTCATAGGTGTACA (sugars k3 d10 k3, PS)",61
14,"AACTCTGAGTAGACTT (sugars k3 d10 k3, PS)",28
15,"AAGAACTGCTGTGTGT (sugars k3 d10 k3, PS)",12
16,"AAGACCCCGTATCCCC (sugars k3 d10 k3, PS)",42
17,"AAGAGGTGCGAGTACC (sugars k3 d10 k3, PS)",34
18,"AAGCAACACGGGAATT (sugars k3 d10 k3, PS)",22
19,"AAGCCGTTCCTTTTCA (sugars k3 d10 k3, PS)",29
20,"AAGCTAAACTCCTAAG (sugars k3 d10 k3, PS)",15
21,"AAGGAGGCGGGCCTTG (sugars k3 d10 k3, PS)",2

row,Sequence,target mRNA inhibition [%]
1,"AAGGATGGGACCGCCC (sugars k3 d10 k3, PS)",39
2,"AAGTAACTGACACGCA (sugars k3 d10 k3, PS)",23
3,"AAGTACTTGGACAGAA (sugars k3 d10 k3, PS)",54
4,"AAGTCATTGCTCTTGT (sugars k3 d10 k3, PS)",28
5,"AATAAGCAGAAACAGC (sugars k4 d8 k4, PS)",39
6,"AATCAGAATGGCGAGT (sugars k3 d10 k3, PS)",39
7,"AATGGATAGTTTCTCA (sugars k3 d10 k3, PS)",63
8,"AATGTAAGTGATAGGT (sugars k3 d10 k3, PS)",80
9,"AATTCTCCTATGCTGA (sugars k3 d10 k3, PS)",13
10,"ACAAAATGGTGTGTAA (sugars k3 d10 k3, PS)",7
11,"ACAAGAACTGCTGTGT (sugars k3 d10 k3, PS)",7
12,"ACAAGTGCTAGGATTC (sugars k3 d10 k3, PS)",67
13,"ACACACATTAAAGGGT (sugars k3 d10 k3, PS)",43
14,"ACACACATTTGAGAGC (sugars k3 d10 k3, PS)",66
15,"ACACAGTCTGCTGCCC (sugars k3 d10 k3, PS)",51
16,"ACACATCACTTGGTCA (sugars k3 d10 k3, PS)",78
17,"ACACTGGATCTGAATT (sugars k3 d10 k3, PS)",46
18,"ACACTTTTAGAGAGGA (sugars k3 d10 k3, PS)",63
19,"ACAGAAGATCTCTACT (sugars k3 d10 k3, PS)",32
20,"ACAGATAACGAGGTGC (sugars k3 d10 k3, PS)",30
21,"ACAGATAGTTAAGTAC (sugars k3 d10 k3, PS)",35

row,Sequence,target mRNA inhibition [%]
1,"ACAGCATAGCATTATC (sugars k3 d10 k3, PS)",64
2,"ACAGGACCTGGTCCAG (sugars k3 d10 k3, PS)",35
3,"ACAGGGTGCTCCTGAG (sugars k3 d10 k3, PS)",23
4,"ACATATCCATGTTGCA (sugars k3 d10 k3, PS)",79
5,"ACATGGCAGTGGAGCT (sugars k3 d10 k3, PS)",64
6,"ACATTACTGAGATATC (sugars k3 d10 k3, PS)",16
7,"ACCAGAACTAATGTCC (sugars k3 d10 k3, PS)",32
8,"ACCCACACAAGTCTTA (sugars k3 d10 k3, PS)",-4
9,"ACCCACGGACGGAGGC (sugars k3 d10 k3, PS)",-9
10,"ACCTACAAGCAGTCAT (sugars k3 d10 k3, PS)",46
11,"ACCTGCTGGCAGTTCT (sugars k3 d10 k3, PS)",61
12,"ACCTTTTTTGGCTCCC (sugars k4 d8 k4, PS)",19
13,"ACGACAGCATAGCATT (sugars k3 d10 k3, PS)",67
14,"ACGCAAGTCTGAATTT (sugars k3 d10 k3, PS)",65
15,"ACGCACACACAAGTGG (sugars k3 d10 k3, PS)",59
16,"ACTAATACCTACCTGC (sugars k3 d10 k3, PS)",48
17,"ACTACTATTGTGGAAA (sugars k3 d10 k3, PS)",18
18,"ACTCACTGGTTCTGAA (sugars k3 d10 k3, PS)",14
19,"ACTCCATGAGGTTTTC (sugars k3 d10 k3, PS)",73
20,"ACTGACCTTTACTTCA (sugars k3 d10 k3, PS)",43
